Reference: patent US20080051449A1, “PREPARATION OF ATORVASTATIN CALCIUM FORM VI AND COMPOSITIONS THEREOF” (priority 2006, published 2008)

How the values were obtained:
Format in all cases: physicochemical
[1] = Particle size distribution by Malvern particle size analyzer; conditions: dispersant 0.7% dioctyl sodium sulfosuccinate in n-hexane
Description: A particle size distribution of D50 as used herein is defined as the distribution where 50 volume percent of the particles are smaller than that size given. A particle size distribution of D10 as used herein is defined as the distribution where 10 volume percent of the particles are smaller than that size given. A particle size distribution of D90 as used herein is defined as the distribution where 90 volume percent of the particles are smaller than that size given. The D50 value is considered to be a “mean particle size.” Particle size can be determined using commercially available instrumentation, such as that sold by Malvern Instruments Ltd. of Malvern, Worcestershire, United Kingdom and using a laser diffraction principle.
The particle size distribution of atorvastatin calcium Form VI was determined using a Malvern® particle size analyzer, and 0.7% of dioctyl sodium sulfosuccinate in n-hexane was used as the dispersant.

[2] = Stability study during storage at 25° C. and 60% relative humidity; conditions: 25° C./60% RH
Experimental: Stability Study of Atorvastatin Calcium Crystalline Form VI (Example 3) During Storage at 25° C. and 60% Relative Humidity.
Stability packaging: same as Example 5.

[3] = Stability study at 40° C. and 75% relative humidity; conditions: 40° C./75% RH
Description: Stability packaging: The sample was packed in a clear polyethylene bag and flushed with nitrogen, then tied and placed in a black polyethylene bag along with silica gel and tied. Finally the black bag was placed in a triple laminated bag and sealed with a liner sealer.

[4] = Stability study under various stress conditions in an open container
Description: Stability Study of Atorvastatin Calcium Crystalline Form VI (Example 3) Subject to Various Stress Conditions in an Open Container

[5] = Accelerated Stability (40° C. and 75% relative humidity) 24 hours
[6] = Compression (2000 kg/cm^2) for 1 hour
[7] = UV Photostability λ = 254 nm, 24 hours

[R—(R*,R*)]-2-(4-fluorophenyl)-β,δ-dihydroxy-5-(1-methylethyl)-3-phenyl-4[(phenyl amino) carbonyl]-IH-pyrrole-1-heptanoic acid, calcium salt (2:1) trihydrate [Atorvastatin calcium Form VI (Example 3)]
Particle Size D10 [1]: 1.32 μm
Particle Size D50 [1]: 5.22 μm
Particle Size D90 [1]: 24.54 μm
Assay by HPLC ([2]; 1 month): 99.1 % w/w
Moisture Content ([2]; 1 month): 1.5 % w/w
Total Impurities by HPLC ([2]; 1 month): 0.16 % w/w
Assay by HPLC ([2]; 3 months): 99.1 % w/w
Moisture Content ([2]; 3 months): 1.7 % w/w
Total Impurities by HPLC ([2]; 3 months): 0.14 % w/w
Assay by HPLC ([2]; 6 months): 99.3 % w/w
Moisture Content ([2]; 6 months): 1.5 % w/w
Total Impurities by HPLC ([2]; 6 months): 0.23 % w/w
Assay by HPLC ([2]; Initial): 99.1 % w/w
Moisture Content ([2]; Initial): 1.4 % w/w
Total Impurities by HPLC ([2]; Initial): 0.18 % w/w
Assay by HPLC ([3]; 1 month): 99.2 % w/w
Moisture Content ([3]; 1 month): 1.4 % w/w
Total Impurities by HPLC ([3]; 1 month): 0.14 % w/w
Assay by HPLC ([3]; 3 months): 99.2 % w/w
Moisture Content ([3]; 3 months): 1.6 % w/w
Total Impurities by HPLC ([3]; 3 months): 0.15 % w/w
Assay by HPLC ([3]; 6 months): 99.2 % w/w
Moisture Content ([3]; 6 months): 1.6 % w/w
Total Impurities by HPLC ([3]; 6 months): 0.24 % w/w
Assay by HPLC ([3]; Initial): 99.1 % w/w
Moisture Content ([3]; Initial): 1.4 % w/w
Total Impurities by HPLC ([3]; Initial): 0.18 % w/w
Total Impurities [4, 5]: 0.29 % w/w
Water by KF [4, 5]: 1.85 % w/w
Total Impurities [4, 6]: 0.32 % w/w
Water by KF [4, 6]: 1.68 % w/w
Total Impurities ([4]; Initial analysis): 0.26 % w/w
Water by KF ([4]; Initial analysis): 1.60 % w/w
Total Impurities ([4]; Thermal (90° C.) 24 hours): 0.7 % w/w
Water by KF ([4]; Thermal (90° C.) 24 hours): 1.04 % w/w
Total Impurities [4, 7]: 0.27 % w/w
Water by KF [4, 7]: 1.54 % w/w
